Experimental data reported in US11046640B2, “Water-soluble L-DOPA esters” (BERLIREM GMBH, priority 2015, dated 2021).
Values after ≈ are worked out from the molar mass of the structure shown.

What was measured:
[1] = cited from earlier work
[2] = Hydrolytic stability at selected pH values (TLC); type: physicochemical
Method: Each 20 mg of lyophilized L-DOPA glycerol ester hydrochloride as well as L-DOPA ethyl ester hydrochloride were dissolved in 250 μl of buffer solution which was de-gassed for 5 min under argon.
The ester solutions were stored at 32° C.

[3] = target: T1, carboxylesterase 1 (isoform c, human, recombinant) (Homo sapiens, UniProt P23141); test: Enzymatic ester cleavage using isolated carboxylesterase; type: in vitro ADME
T1 construct: purchased Sigma-Aldrich, Munich, Germany
T1 sequence (P23141 18-566 isoform P23141-3 limits assumed): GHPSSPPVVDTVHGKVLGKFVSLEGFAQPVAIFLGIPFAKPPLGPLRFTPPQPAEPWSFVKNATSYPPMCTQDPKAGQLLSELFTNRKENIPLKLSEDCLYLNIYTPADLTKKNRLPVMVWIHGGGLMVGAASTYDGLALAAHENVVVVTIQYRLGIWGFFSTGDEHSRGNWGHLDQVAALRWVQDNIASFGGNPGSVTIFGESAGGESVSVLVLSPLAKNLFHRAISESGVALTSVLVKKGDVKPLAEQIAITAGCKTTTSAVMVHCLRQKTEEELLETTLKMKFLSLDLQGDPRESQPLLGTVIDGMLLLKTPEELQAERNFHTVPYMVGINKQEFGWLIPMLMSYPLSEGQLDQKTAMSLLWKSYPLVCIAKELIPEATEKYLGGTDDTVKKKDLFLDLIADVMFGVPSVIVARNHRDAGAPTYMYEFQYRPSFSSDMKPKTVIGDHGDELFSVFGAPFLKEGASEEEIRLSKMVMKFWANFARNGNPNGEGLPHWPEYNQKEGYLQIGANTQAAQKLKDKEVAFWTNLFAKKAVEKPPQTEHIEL
Method: Enzymatic Ester Cleavage Using Isolated Carboxylesterase
Afterwards 5 μl carboxylestaerase 1 (isoform c, human, recombinant (Sigma-Aldrich, Munich, Germany)) with activity 1000 units/mg protein (concentration: 5 mg/ml) was added. The mixture was incubated for 60 and 180 min at 37° C.

Solubility in water = type: physicochemical; settings: for solubility in water: hydrochloride salt; for Aqueous solubility: water
Method: 40 mg of lyophilized L-DOPA glycerol ester hydrochloride was dissolved in 20 μl of water resulting in a viscous liquid. The aqueous solubility of L-DOPA glycerol ester hydrochloride is ≥2 g/ml.

N[C@@H](Cc1ccc(O)c(O)c1)C(=O)O [L-DOPA, L-3,4-Dihydroxyphenylalanin]
water solubility ([1]; reported, Fernandez & Odin 2011): 20 mg/mL (≈ 101 mM)

CCOC(=O)[C@@H](N)Cc1ccc(O)c(O)c1.Cl [Ethyl-Dopa•HCl, L-DOPA ethyl ester hydrochloride]
Stability (days at pH 7.4, Soerensen buffer) [2]: 2 days | Time to complete hydrolysis (min) (with carboxylesterase) [3]: 60 min | solubility in water (Solubility in water): up to 400 mg/ml | Aqueous solubility (Solubility in water): 400 mg/mL

Cl.N[C@@H](Cc1ccc(O)c(O)c1)C(=O)OCC(O)CO (stereo partly drawn) [Gly-Dopa•HCl, L-DOPA glycerol ester hydrochloride]
hydrolytic stability ([2]; all pH values (1, 4.5, 7.4, 8.5), 32° C., over 14 days): stable | Stability (days at pH 7.4, Soerensen buffer) [2]: 14 days | Time to complete hydrolysis (min) (with carboxylesterase) [3]: >60 min | ester remaining ([3]; carboxylesterase 1, 37° C., after 180 min): only traces | Aqueous solubility (Solubility in water; hydrochloride): 2000 mg/mL | Aqueous solubility (Solubility in water; listed as L-DOPA glycerol ester hydrochloride, hydrochloride): ≥ 2000 mg/mL

CCOC(=O)[C@@H](N)Cc1ccc(O)c(O)c1 [L-DOPA ethyl ester]
time within which the ester is cleaved ([2]; pH 7.4, 32° C.): ≤ 2 days | time within which the ester is cleaved ([2]; pH 8.5, 32° C.): ≤ 2 days | hydrolytic stability ([2]; pH=1, 32° C., over measured time period): stable | time within which the ester is cleaved ([2]; pH=4.5, 32° C.): ≤ 14 days | ester cleavage ([3]; carboxylesterase 1, 37° C., after 60 min): complete | solubility in water (Solubility in water): 400 mg/mL | solubility ([1]; at pH 8.2, free base, US 6,696,600 B2): 52 mg/mL (≈ 231 mM)
